Entries after “also recorded” stand apart in the source; their conditions may differ.
System: mouse IL-6
Assay: IL-6 ELISA on culture medium of differentiated C2C12 cells exposed to a cytokine mixture (cytomix, CTX)
Format: cell-based
Details: for % reduction IL-6: C2C12, 24 h pre-treatment, then 24 h with cytomix; for IL-6 / anti-inflammatory effect (FIG. 1): pre-treatment for 24 hours at 3.125 μM alone
Experimental: C2C12 Myoblasts purchased from ATCC (ref. CRL-1772) were seeded at 8000 cells per well in a 96 well plate (Greiner) using a DMEM Glutamax 4.5g D-glucose (Gibco, ref 31966021) supplemented with FIBS 10% (PanBiotech, ref P190902), 1% PenStrep (Biowest) and 1% Hepes (Biowest). Cells were then differentiated for 6 days using a differentiation medium (DMEM Glutamax 4.5g D-glucose (Gibco, ref 31966021), 2% Horse serum (Thermofisher, ref 160501229) 1% PenStrep and 1% Hepes). All media were sterilized with a 0.45 um filter unit (VWR). After 4 days of the differentiation cells were treated for 24 h with 1) Urolithin A (UA) resuspended in DMSO, 2) ginsenoside […]-3832) or 3) a combination of the two at the indicated doses. A cytokine mixture (“cytomix”) was added at day 5 in addition of the previous treatment for another 24 h, cytokines were respectively used at 5ng (mIFN-γ (Roche ref. 11276905001), TNF-α (Peprotech ref. 300-01A) and IL-1β (Proteintech ref. 200-01B)). The medium was collected and an ELISA for Interleukin-6 were performed following the instruction provided by the supplier (Proteintech ref. KE10007). In particular, the IL-6 ELISA kit is to be used to detect and quantify protein levels of endogenous mouse IL-6. The assay recognizes mouse IL-6. An antibody specific for mouse IL-6 has been pre-coated onto the microwells. The IL-6 protein in samples is captured by the coated antibody after incubation. Following extensive washing, another antibody of biotinylated specific for mouse IL-6 is added to detect the captured mouse IL-6 protein. For signal development, Streptavidin-HRP is added, followed by Tetramethyl-benzidine (TMB) reagent. Solution containing sulfuric acid is used to stop colour development and the colour intensity which is proportional to the quantity of bound protein is measurable at 450 nm with the correction wavelength set at 630 nm, using a microplate plate reader (Fluostar Optima, BMG Labtech). We exposed of C2C12 to a mix of pro-inflammatory cytokines (cytomix, CTX) to induce inflammation signals. Interleukin-6 (IL-6), a multifunctional cytokine produced in cells and induced by a variety of stimulating signals. IL-6 production and release in the media is a proxy of the inflammation induced by treatment with the cytokines part of the cytomix (Tosato & Jones (1990) Blood 75(6), 1305-10). With cytomix treatment, we observed a significant increase in Interleukin 6 (IL-6) secretion, measured as the concentration of IL-6 in the cell culture media.

CC(C)=CCC[C@](C)(O[C@@H]1O[C@H](CO)[C@@H](O)[C@H](O)[C@H]1O)[C@H]1CC[C@]2(C)[C@@H]1[C@H](O)C[C@@H]1[C@@]3(C)CC[C@H](O)C(C)(C)[C@@H]3[C@@H](O[C@@H]3O[C@H](CO)[C@@H](O)[C@H](O)[C@H]3O)C[C@]12C [Ginsenoside Rg1, ginsenoside Rg1]
% reduction IL-6 (CTX 5 ng vs. Rg1 3.125 μM + CTX): +9.8%
IL-6 / anti-inflammatory effect (FIG. 1) (cytomix-treated C2C12): no effects
IL-6 / anti-inflammatory effect (FIG. 1) (cytomix-treated C2C12, listed as Rg1): did not show any anti-inflammatory effect alone; also recorded: no effects
IL-6 (FIG. 1) (pre-treatment for 24 hours at 12.5 μM, cytomix-treated C2C12): non-significant trend in reduction
IL-6 (FIG. 1) (pre-treatment for 24 hours at 100 μM, cytomix-treated C2C12): significant decrease
IL-6, dose dependence (FIG. 1) (pre-treatment for 24 hours, 3.125 to 100 μM, cytomix-treated C2C12): dose dependent decrease in IL-6

O=c1oc2cc(O)ccc2c2ccc(O)cc12 [Urolithin A]
% reduction IL-6 (CTX 5 ng vs. UA 6.25 μM + CTX): −16%
IL-6 secretion (FIG. 1) (pre-treatment for 24 hours at 6.25 μM, cytomix-treated C2C12): significantly decreased IL-6 secretion
